In ChEMBL document CHEMBL1201862, “PubChem BioAssay data set” (2004):
Activity calls are given as the source filed them.

What was measured:
[1] = Luminescence Cell-Based Dose Response HTS to Identify Activators of Luciferase Translation or Activity in H4 […] Cells. [Related pubchem assays: 1829 (Project Summary), 1814 (Primary HTS)]; type: functional
Vero [2] = experiment: cells; type: functional, cell-based; details: Chlorocebus sabaeus
H4 = experiment: Luminescence Cell-Based Dose Response HTS to Identify Activators of 5'UTR Stem-Loop Driven Prion Protein mRNA Translation in H4 Neuroglioblastoma Cells. [Related pubchem assays: 1829 (Project Summary), 1814 (Primary HTS)]; type: functional; details: Homo sapiens
Escherichia coli = experiment: microbe, parasite or virus in culture
Tumor necrosis factor = Tumor necrosis factor (Homo sapiens, UniProt P01375); experiment: TNFa-triggered NF-kB activation inhibitors, SAR follow-up, cell-based, revised (AID 2337); type: functional
[3] = target: T1, Nucleotide-binding oligomerization domain-containing protein 1 (Homo sapiens, UniProt Q9Y239); experiment: NOD1 signaling inhibitors, SAR follow-up, revised (AID 2333); type: functional
T1 sequence (Q9Y239 whole entry): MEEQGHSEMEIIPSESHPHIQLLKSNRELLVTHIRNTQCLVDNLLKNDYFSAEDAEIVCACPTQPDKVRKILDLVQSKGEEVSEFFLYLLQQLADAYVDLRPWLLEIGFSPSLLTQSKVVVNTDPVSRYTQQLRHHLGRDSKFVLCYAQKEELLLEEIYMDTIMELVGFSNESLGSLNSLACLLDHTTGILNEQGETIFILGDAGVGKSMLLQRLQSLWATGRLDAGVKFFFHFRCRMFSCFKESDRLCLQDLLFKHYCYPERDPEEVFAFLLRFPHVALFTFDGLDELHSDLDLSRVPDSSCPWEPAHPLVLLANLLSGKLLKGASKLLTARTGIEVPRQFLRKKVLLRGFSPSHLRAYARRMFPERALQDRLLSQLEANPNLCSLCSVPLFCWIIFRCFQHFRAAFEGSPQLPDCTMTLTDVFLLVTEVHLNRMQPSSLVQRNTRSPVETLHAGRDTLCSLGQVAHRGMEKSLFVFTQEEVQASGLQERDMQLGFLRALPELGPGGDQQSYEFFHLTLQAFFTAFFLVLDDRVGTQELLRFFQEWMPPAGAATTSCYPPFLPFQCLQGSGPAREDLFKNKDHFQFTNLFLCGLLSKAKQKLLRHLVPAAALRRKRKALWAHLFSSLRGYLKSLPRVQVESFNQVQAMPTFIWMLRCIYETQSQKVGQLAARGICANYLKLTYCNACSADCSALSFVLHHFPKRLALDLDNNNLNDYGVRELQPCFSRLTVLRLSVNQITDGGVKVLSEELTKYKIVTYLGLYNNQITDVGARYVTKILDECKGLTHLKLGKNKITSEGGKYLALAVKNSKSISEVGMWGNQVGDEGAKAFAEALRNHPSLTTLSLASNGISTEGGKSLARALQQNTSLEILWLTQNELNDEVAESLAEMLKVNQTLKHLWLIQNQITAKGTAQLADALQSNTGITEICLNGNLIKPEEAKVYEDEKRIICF

HEK293 = experiment: cells; details: Homo sapiens;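 note: cells exposed to compound for 14 hours overnight before viability readout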
[4] = target: T2, Sentrin-specific protease 8 (Homo sapiens, UniProt Q96LD8); type: functional;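 note: luminescence read-out of SENP8 inhibition, dose-response confirmation following an ultra-high-throughput screen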
T2 sequence (Q96LD8 whole entry): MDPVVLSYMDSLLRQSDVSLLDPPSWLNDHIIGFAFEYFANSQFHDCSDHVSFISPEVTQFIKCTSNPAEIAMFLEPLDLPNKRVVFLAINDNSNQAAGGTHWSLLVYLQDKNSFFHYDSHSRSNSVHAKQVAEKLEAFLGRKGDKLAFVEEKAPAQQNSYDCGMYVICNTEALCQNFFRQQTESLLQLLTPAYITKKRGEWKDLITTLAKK

[5] = target: T3, Sentrin-specific protease 7 (Homo sapiens, UniProt Q9BQF6); type: functional;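 note: Luminescence-based dose-response confirmation of ultra-high-throughput screening hits, measuring inhibition of SENP7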
T3 sequence (Q9BQF6 whole entry): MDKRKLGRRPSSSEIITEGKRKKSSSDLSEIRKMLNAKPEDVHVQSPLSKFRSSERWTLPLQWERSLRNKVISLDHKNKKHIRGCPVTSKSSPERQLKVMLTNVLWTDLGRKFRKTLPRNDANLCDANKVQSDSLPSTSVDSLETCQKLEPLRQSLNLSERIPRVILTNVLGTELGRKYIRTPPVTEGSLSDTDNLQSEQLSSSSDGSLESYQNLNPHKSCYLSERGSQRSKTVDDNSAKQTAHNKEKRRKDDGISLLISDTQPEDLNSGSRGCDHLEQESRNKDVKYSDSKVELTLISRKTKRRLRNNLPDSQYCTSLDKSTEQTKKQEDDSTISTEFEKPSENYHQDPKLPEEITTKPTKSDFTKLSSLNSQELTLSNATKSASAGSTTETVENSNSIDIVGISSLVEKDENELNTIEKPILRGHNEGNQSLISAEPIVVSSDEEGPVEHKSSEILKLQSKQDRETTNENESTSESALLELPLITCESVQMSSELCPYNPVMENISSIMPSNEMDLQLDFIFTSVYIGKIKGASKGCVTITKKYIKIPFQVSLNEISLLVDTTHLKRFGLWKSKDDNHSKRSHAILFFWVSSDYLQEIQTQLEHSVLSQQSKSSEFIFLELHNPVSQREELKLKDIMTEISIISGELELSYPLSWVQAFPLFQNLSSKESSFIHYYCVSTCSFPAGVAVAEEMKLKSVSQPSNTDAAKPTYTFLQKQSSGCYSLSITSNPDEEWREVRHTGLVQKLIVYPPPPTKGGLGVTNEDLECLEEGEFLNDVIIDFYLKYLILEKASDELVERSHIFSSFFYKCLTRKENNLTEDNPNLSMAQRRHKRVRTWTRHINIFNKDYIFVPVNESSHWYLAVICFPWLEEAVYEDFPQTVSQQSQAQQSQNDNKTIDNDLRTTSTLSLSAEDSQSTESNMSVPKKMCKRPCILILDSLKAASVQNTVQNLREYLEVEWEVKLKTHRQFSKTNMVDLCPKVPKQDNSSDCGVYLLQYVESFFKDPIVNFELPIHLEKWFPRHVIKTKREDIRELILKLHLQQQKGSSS

[6] = target: T4, Heat shock factor protein 1 (Mus musculus, UniProt P38532); experiment: HSF1 potentiators in luciferase reporter cells, confirmation, cell-based, NIH3T3, luminescence, dose retest (AID 435004); type: functional;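 note: stress induced by proteasome inhibitor MG132 added 30 min after compound; luciferase reporter driven by HSF1 response element in NIH3T3 cells; actives raise luminescence as potentiators of the MG132 stress response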
T4 sequence (P38532 whole entry): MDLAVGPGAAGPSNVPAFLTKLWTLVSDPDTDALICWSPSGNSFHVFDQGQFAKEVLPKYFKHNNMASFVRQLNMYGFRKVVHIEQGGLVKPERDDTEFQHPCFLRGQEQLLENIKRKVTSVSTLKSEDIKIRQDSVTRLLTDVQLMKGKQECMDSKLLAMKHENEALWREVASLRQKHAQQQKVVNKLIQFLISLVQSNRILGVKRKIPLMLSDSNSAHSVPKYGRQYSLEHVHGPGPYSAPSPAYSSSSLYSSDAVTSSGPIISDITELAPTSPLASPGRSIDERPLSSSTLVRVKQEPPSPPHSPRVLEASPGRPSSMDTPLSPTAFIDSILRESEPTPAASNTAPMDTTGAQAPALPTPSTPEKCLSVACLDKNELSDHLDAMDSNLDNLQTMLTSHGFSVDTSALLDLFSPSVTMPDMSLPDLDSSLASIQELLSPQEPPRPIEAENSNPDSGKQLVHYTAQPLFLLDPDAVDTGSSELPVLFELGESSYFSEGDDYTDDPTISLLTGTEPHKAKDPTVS

[7] = target: T5, Sentrin-specific protease 6 (Homo sapiens, UniProt Q9GZR1); type: functional;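 note: Luminescence-based dose-response confirmatory assay of SENP6 inhibition, following up an ultra-high-throughput screen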
T5 sequence (Q9GZR1 whole entry): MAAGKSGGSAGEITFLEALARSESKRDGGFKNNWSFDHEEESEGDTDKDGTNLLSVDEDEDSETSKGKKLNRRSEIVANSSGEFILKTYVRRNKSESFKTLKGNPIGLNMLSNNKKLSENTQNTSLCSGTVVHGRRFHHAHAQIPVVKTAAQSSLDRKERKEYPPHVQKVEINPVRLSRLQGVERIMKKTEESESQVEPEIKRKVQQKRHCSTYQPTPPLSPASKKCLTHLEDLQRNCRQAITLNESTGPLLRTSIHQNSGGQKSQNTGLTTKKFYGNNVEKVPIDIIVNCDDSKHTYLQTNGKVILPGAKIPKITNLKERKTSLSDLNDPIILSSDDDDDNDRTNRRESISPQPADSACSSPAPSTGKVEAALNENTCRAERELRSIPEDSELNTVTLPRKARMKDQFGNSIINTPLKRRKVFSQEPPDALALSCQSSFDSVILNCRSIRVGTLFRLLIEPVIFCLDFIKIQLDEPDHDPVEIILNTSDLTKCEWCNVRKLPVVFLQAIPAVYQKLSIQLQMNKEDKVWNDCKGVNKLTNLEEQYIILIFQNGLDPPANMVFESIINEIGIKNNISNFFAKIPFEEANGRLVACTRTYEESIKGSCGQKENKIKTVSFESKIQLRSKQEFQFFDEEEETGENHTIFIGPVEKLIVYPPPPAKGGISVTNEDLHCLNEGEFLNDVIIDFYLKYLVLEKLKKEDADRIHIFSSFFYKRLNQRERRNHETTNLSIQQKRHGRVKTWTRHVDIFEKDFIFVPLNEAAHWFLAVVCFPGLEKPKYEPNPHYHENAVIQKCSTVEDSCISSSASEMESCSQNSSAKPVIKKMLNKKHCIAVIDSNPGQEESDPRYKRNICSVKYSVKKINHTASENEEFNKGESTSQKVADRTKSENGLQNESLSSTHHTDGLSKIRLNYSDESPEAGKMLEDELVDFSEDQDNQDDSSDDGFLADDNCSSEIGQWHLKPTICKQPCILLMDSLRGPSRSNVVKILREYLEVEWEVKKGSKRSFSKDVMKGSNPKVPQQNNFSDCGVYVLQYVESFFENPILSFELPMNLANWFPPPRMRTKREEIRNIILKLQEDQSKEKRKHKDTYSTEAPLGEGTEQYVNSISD

Caspase-3 = target: T6, Caspase-3 (Homo sapiens, UniProt P42574); type: functional;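 note: Dose-response selectivity test against caspase-3 for candidate inhibitors of sentrin-specific proteases (SENPs)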
T6 sequence (P42574 whole entry): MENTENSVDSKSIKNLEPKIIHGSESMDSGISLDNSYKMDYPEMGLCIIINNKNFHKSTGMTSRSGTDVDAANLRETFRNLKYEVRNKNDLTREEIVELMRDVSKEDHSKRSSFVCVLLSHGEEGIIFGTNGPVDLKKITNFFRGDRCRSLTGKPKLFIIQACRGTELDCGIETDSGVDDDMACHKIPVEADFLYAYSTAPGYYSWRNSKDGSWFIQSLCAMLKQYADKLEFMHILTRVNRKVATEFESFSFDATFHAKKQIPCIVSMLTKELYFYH

Vero [8] = experiment: cells; type: functional; details: Chlorocebus sabaeus
Cysteine protease ATG4B = target: T7, Cysteine protease ATG4B (Homo sapiens, UniProt Q9Y4P1); type: functional;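 note: Fluorescence-based dose-response confirmation assay measuring inhibition of ATG4B activity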
T7 sequence (Q9Y4P1 whole entry): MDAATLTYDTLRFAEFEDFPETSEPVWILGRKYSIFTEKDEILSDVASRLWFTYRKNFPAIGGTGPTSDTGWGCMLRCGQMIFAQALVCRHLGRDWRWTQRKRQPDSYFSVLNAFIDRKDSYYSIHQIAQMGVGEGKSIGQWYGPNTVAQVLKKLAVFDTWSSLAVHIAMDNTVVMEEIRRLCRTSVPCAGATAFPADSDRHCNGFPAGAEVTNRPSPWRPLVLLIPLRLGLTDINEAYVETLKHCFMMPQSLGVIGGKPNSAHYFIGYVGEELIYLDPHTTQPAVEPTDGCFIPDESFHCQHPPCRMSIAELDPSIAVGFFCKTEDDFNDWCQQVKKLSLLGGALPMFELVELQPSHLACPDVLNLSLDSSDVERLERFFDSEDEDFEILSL

Phospholipase A2 = Phospholipase A2 (Homo sapiens, UniProt P04054); type: functional;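 note: confirmatory dose-response counterscreen on phospholipase A2, testing hits that came from an ultra-high-throughput screen for ATG4B inhibitors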
[9] = HEp-2 cell cytotoxicity, dose response, cytotoxicity control for RSV inhibitor project, HTS (AID 2410); type: functional; details: human respiratory syncytial virus

Sequence of Tumor necrosis factor (P01375 whole entry, the tested form may be a part): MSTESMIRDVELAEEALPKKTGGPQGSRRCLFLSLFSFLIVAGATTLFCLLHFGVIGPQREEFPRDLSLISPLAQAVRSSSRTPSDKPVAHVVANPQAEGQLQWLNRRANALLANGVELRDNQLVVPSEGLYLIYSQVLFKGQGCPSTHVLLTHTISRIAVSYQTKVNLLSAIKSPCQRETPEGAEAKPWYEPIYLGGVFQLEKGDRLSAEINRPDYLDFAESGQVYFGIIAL
Sequence of Phospholipase A2 (P04054 whole entry): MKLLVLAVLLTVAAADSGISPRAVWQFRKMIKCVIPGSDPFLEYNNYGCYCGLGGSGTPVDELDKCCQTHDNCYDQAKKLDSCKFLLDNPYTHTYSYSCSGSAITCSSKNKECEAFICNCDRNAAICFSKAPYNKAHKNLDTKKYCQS

Cc1cc(C(=O)NC2CCCc3c2cnn3-c2cccc(C)c2C)no1 (stereo not drawn)
EC50 [1]: > 120 µM (not active)
IC50 (Vero [2]): 1.53 µM (active)
EC50 (H4): > 120 µM (not active)

CCN(Cc1ccccc1)S(=O)(=O)c1c[nH]c(C(=O)OC)c1
AC50 (Escherichia coli): 80.5 µM (active)

CC(C)(C)C(=O)/N=C(\N)Nc1nc2ccccc2o1
IC50 (Tumor necrosis factor): 16.5 µM (active)
IC50 [3]: > 20 µM (inactive)
IC50 (HEK293): > 20 µM (inactive)

CCOc1ccc(NC(=O)c2ccc(NC(=O)COC(=O)Cc3ccc(OC)cc3)cc2)cc1
AC50 (Escherichia coli): 21.4 µM (active)

Cc1ccc(-n2cc3ccc([N+](=O)[O-])cc3n2)cc1
IC50 [4]: 59.9 µM (active)
IC50 [5]: 12.5 µM (active)
EC50 [6]: > 260 µM (inconclusive)
IC50 [7]: 17.2 µM (active)
IC50 (Caspase-3): 34.7 µM (active)

COc1ccc(C(=O)/C=C/c2cccnc2)c(OC)c1
CC50 (Vero [8]): 14.9 µM (active)
IC50 (Vero [2]): > 25 µM (active)

COc1ccc(Br)cc1CNC(=O)C1CCN(S(=O)(=O)N2CCC(C)CC2)CC1
IC50 (Cysteine protease ATG4B): 9.71 µM (active)
IC50 (Phospholipase A2): 6.6 µM (active)

CCN(CC)C(=O)Oc1ccc2ccccc2c1Br
CC50 (Vero [8]): 22.7 µM (active)
IC50 (Vero [2]): > 25 µM (active)
CC50 [9]: 44.8 µM (active)

COc1ccccc1OC(=O)c1ccc(C)c(S(=O)(=O)N2CCOCC2)c1
AC50 (Escherichia coli): 23.7 µM (active)

Oc1ccc(Cl)cc1N=Nc1ccccc1
IC50 [4]: > 100 µM (inactive)
IC50 [5]: 7.8 µM (active)
IC50 [7]: 35.4 µM (active)
IC50 (Caspase-3): 23.6 µM (active)

CCCCn1c(N)c(N(CCOC)C(=O)COC(=O)C(C)Oc2ccc(Cl)cc2)c(=O)[nH]c1=O (stereo not drawn)
AC50 (Escherichia coli): 22 µM (active)

Cc1nc(SC(C)C(=O)NCC2CCCO2)c2cc(-c3ccccc3)sc2n1 (stereo not drawn)
CC50 (Vero [8]): > 25 µM (active)
IC50 (Vero [2]): 5.04 µM (active)

Oc1nc(SCc2ccc(Cl)cc2)nc2ccsc12
IC50 [4]: 68.7 µM (active)
IC50 [5]: 8.53 µM (active)
EC50 [6]: 21.9 µM (active)
IC50 [7]: 6.14 µM (active)
IC50 (Caspase-3): 15.2 µM (active)
